US4866068A, “Novel HMG-CoA reductase inhibitors” (Merck & Co., Inc., priority 1988, dated 1989)

Test system: HMG-CoA reductase
Assay: in vitro HMG-CoA reductase inhibition, relative potency versus compactin
Type: biochemical
Conditions: compactin (mevastatin) assigned a value of 100; IC50 of test compound compared with that of compactin determined simultaneously
Experimental: The intrinsic HMG-CoA reductase inhibition activity of the claimed compounds is measured in the in vitro protocol published in J. Med. Chem., 28, p. 347-358 (1985).
For estimation of relative inhibitory potencies, compactin (i.e., mevastatin) was assigned a value of 100 and the IC50 value of the test compound was compared with that of compactin determined simultaneously in the published in vitro protocol.

Row | relative potency (intrinsic HMG-CoA reductase inhibitory activity) | SMILES
1 | 112 | C[C@H]1C=C2C=C[C@H](C)[C@H](CC[C@@H]3C[C@@H](O)CC(=O)O3)[C@H]2[C@@H](OC(=O)C(C)(C)Sc2ccncc2)C1 [Example 1, 6R-[2-[8(S)[2-methyl-2-(4-pyridinylthio)propionyloxy]-2(S), 6(R)-dimethyl-1,2,6,7,8,8a(R)-hexahydronaphthyl-1(S)]ethyl]-4(R)-hydroxy-3,4,5,6-tetrahydro-2H-pyran-2-one]
2 | 100 | C[C@H]1C=C2C=C[C@H](C)[C@H](CC[C@@H]3C[C@@H](O)CC(=O)O3)[C@H]2[C@@H](OC(=O)C(C)(C)Sc2nc3ccccc3s2)C1 [Example 2]
